Results reported in patent US20170226139A1, “CRYSTALLINE SALTS OF (Z)-O-OCTADEC-9-EN-1-YL O,O-DIHYDROGEN PHOSPHOROTHIOATE” (priority 2013, published 2017).

Assays:
[1] = tested on: Control CHO; assay: Calcium-mobilization assay, untransfected Control CHO cells; assay type: cell-based, Chinese hamster; conditions: Cricetulus griseus, CHO
Method: We investigated structure-activity relationships across species, LPAR subtypes and between Rx100 and two known process impurities encountered in manufacture: Rx103 (‘E’ isomer) and Rx200 (oleyl phosphate and impurity, which can be an Rx100 degradant along with oleyl alcohol). Rx100, Rx103, Rx200 and native LPA were investigated at different human LPAR subtypes. In addition, the activity of these compounds was evaluated at LPA2 receptors from the rhesus, rat and mouse species. Human LPA1/2/3 subtypes were transfected into mouse embryonic fibroblasts (MEF) or rat hepatoma cells (RH7777)—both of which are normally non-responsive or null to LPA. Human LPA4 was transfected into Chinese hamster ovary (CHO) cells and LPA5 into the B103 neuroblastoma cell line. […] The B103 rat neuroblastoma cell line is endogenously nonresponsive to LPA but expresses heterologous LPA5 receptors well. […] LPAR activation elicits a G-protein-mediated transient rise in intracellular calcium level that is proportional to the concentration of LPA applied. The intracellular calcium level was quantified by the calcium-selective fluorescent indicator FURA-2 (e.g., increased intracellular calcium surge=increased fluorescence).

[2] = tested on: bone marrow cells (micronucleated PCEs); assay: In vivo rat bone marrow micronucleus assay; set-up: species or system Sprague-Dawley rats
Method: A GLP-compliant rat micronucleus study was performed using male Sprague-Dawley rats (n=5/group) administered single subcutaneous doses of Rx100.lysine at 0 (0.5% sterile water for injection with 10 mM L-histidine), 125, 250, and […] (doses corrected for purity were 113, 225 and 452 mg/kg). One additional group received the positive control material (cyclophosphamide). Five animals per group were sacrificed 24 hours postdose; five animals from the vehicle and high dose group were sacrificed 48 hours postdose. Following sacrifice, bone marrow cells were collected from the femur. 2000 PCEs per animal were analyzed for the frequency of micronuclei. […] The materials were also shown to be homogenous (relative standard deviation [RSD] of 0.7 to 0.9%). […] Thus, Rx100.Lysine was considered to be negative in the micronucleus assay.

[3] = 125 mg/kg single subcutaneous dose, harvest 24 hour
[4] = 250 mg/kg single subcutaneous dose, harvest 24 hour

Row | Compound | EC50 [1] | Emax ([1]; read-out: Emax (% of LPA)) | Mean % MNPC (±SD) Male [2, 3] | Mean Ratio PCE:NCE (±SD) Male [2, 3] | Mean % MNPC (±SD) Male [2, 4] | Mean Ratio PCE:NCE (±SD) Male [2, 4] | Mean Ratio PCE:NCE (±SD) Male ([2]; 500 mg/kg single subcutaneous dose, harvest 48 hour) | Toxic/Cytotoxic Effects ([2]; all doses of the test article, statistically significant decreases in the PCE:NCE ratios) | micronucleated PCEs ([2]; any dose, 24 hour point, single SC dose) | clinical signs ([2]; high dose animals at 48 hours postdose) | micronucleated PCEs ([2]; high dose animals, 48-hour time point, not considered biologically relevant) | micronucleus assay, overall result ([2]; rat, in vivo)
1 | CCCCCCCC/C=C\CCCCCCCCOP(O)(O)=S [Rx100, (Z)—O-octadec-9-en-1-yl O,O-dihydrogen phosphorothioate] | > 5 µM | 20% |  |  |  |  |  |  |  |  |  | 
2 | CCCCCCCC/C=C\CCCCCCCCOP(O)(O)=S [Rx100.L-Lysine, (Z)—O-octadec-9-en-1-yl O,O-dihydrogen phosphorothioate] |  |  | 0.04% | 0.55 | 0.07% | 0.59 | 0.36 | Toxic/Cytotoxic Effects: Rx100.Lysine was cytotoxic to the bone marrow (i.e., statistically significant decreases in the PCE:NCE ratios) | no increase in micronucleated PCEs | hunched posture, hypoactivity and irregular respiration | statistically significant increase | negative
